# Key:
# [1] = Estimated plasma concentration after i.p. dosing in the AGS study; type: in vivo; conditions: DBA, mouse, intraperitoneal, 1 mg/kg i.p., 60 minutes after dosing
# [2] = tested on: sound-induced seizures in DBA mice; test: Audiogenic seizure (AGS) model in DBA/2 mice; type: in vivo, mouse
# From the text: This study examined the anti-seizure efficacy of Compound 1 against to reference compounds (Diazepam and Sipatrigine) using the audiogenic mouse model as the test platform.
# DBA mice are well established in the literature as a model for audiogenic seizures (AGS). This genetically based model is attractive for testing potential therapeutics in that no treatment protocol is required to create the condition. It is classified as inherited idiopathic epilepsy with no known associated organic disease.
# The AGS response in these mice consists of a progressive sequence of behaviors. The latency to onset may vary from 2 to 15 seconds, and is age variant. The initial wild running phase may be divided into an early running phase that varies from 5 tp 20 seconds, followed by a wild running phase that continues for 10-20 seconds. Wild running may progress to tonic/clonic seizures, with loss of righting ability, respiratory suppression and death.
# We a scoring system to quantify the effects of the test compounds on the induction of seizures. The behavioral sequence was assigned ascending numerical values (Table 1), and the highest numerical value reached by an animal was that animal's score.
# Animals. Male DBA/2 mice were obtained from Jackson Laboratories at 21 day post partum. The animals were acclimated for 1 or 2 days prior to use. Individual animal weights were recorded immediately before treatment. Surviving animals were euthanized within three days of completion of testing.
# Seizure Induction. Mice were placed in a test chamber (25 cm i.d.) and exposed to pure tone sound of 11 kHz at a minimum of 116 dB for approximately 60 s until a sequential seizure response, consisting of an early wild running phase, followed by generalized myoclonus and tonic flexion and extension, was obtained. Non-responders were challenged up to five times. Ten animals were obtained by this method for each intended treatment group, with a standard deviation in their maximum score of less than 25%. The acoustic stimulus signal was produced using a signal generator and projected via four high-frequency ceramic speakers mounted on the roof of the chamber. Chamber calibration was performed daily to ensure consistent sound pressure. AGS behaviors were videotaped for later analysis.
# I.P. injections: The 10 animals in each treatment group were injected intra-peritoneally with the test drug in a volume of 10 mL/kg of body weight. Injections were 60 min prior to sound challenge.
# Data analyses: Data were tested for normal distribution, and (when normal) were analyzed using ANOVA followed by Student's t test. When the data were not normally distributed, analysis was with the Mann-Whitney rank sum test. Significance was set at p<0.05.
# [3] = biological target: T1, HEK cells expressing Nav1.3 (HEK-Nav1.3) (Homo sapiens, UniProt Q9NY46); test: High-throughput VIPR FRET assay of persistent sodium current-dependent depolarization with K+ counter-screen; type: cell-based; conditions: tetracaine 10 μM, FIG. 2
# T1 construct: expressed in transfected cells
# [4] = DBA mice, 60 minutes after dosing, Compound 1 1 mg/kg, references at predicted doses
# [5] = DBA/2 mice, i.p. 60 min before sound challenge, scale 1-8, Diazepam 0.15, Sipatrigine 3, Compound 1 1 mg/kg, control 4.8 ± 1.9
# T1 sequence (Q9NY46 whole entry): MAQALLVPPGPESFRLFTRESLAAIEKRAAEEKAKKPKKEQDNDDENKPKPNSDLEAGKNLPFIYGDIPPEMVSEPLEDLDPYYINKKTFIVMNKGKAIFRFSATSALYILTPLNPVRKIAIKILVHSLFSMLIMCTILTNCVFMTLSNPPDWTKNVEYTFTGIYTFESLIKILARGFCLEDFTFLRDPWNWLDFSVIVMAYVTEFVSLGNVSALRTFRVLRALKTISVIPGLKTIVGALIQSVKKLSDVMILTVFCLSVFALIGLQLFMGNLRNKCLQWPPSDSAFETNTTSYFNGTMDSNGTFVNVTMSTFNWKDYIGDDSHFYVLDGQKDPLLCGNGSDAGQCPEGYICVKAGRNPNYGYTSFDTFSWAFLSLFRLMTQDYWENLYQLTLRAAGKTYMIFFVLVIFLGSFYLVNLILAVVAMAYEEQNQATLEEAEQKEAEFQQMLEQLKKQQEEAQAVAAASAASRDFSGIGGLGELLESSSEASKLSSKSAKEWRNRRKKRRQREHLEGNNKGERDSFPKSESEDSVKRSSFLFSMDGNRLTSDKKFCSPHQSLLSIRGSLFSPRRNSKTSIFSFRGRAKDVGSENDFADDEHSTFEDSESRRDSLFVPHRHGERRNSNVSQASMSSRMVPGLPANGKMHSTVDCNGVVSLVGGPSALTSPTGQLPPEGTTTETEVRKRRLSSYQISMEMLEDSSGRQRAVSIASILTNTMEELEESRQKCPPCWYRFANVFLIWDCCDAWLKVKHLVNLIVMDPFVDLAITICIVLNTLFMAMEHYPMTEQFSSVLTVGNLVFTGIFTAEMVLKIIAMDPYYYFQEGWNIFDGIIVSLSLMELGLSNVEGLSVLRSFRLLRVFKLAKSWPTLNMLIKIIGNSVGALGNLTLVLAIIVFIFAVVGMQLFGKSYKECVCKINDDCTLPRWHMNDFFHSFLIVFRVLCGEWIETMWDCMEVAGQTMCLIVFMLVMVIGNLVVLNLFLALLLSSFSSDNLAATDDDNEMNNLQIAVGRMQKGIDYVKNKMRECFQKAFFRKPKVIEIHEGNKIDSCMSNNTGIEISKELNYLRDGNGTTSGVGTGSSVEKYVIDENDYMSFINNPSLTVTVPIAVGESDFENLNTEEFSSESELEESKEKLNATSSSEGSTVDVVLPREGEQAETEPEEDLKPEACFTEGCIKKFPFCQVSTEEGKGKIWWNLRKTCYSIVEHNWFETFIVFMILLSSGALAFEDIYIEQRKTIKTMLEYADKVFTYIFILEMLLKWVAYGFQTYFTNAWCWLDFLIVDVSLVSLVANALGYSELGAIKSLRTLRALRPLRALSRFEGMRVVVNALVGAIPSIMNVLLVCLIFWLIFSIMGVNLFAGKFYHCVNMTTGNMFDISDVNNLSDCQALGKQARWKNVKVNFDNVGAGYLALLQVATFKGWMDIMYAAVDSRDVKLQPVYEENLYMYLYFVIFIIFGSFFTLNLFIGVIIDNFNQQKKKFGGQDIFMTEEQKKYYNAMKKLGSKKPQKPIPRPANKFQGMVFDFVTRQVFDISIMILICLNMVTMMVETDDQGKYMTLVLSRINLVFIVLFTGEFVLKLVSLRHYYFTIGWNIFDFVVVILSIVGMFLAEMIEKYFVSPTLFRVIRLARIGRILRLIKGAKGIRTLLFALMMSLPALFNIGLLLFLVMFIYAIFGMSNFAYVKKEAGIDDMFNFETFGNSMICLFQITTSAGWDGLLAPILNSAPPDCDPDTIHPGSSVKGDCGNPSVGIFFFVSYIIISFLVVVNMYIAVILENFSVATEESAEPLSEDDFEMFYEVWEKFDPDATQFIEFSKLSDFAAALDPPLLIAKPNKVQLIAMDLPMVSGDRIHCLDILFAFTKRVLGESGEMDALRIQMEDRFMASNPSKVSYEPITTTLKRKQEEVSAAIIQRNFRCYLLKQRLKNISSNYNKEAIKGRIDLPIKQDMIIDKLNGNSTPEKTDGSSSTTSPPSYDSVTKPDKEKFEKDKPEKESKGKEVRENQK
smiles,measurement,setting,value
"O=C(NCCCCc1ccccc1)c1cccs1 [Compound 1, thiophene-2-carboxylic acid (4-phenyl-butyl)-amide]",concentration at 60 min,[1],~5 µM
same,behavioral/seizure response to sound-induced seizures,[2]; [4],significantly reduced
same,"Seizure score (AGS), Mean ± s.d.",[2]; [5],3.2 ± 2.3
CN1C(=O)CN=C(c2ccccc2)c2cc(Cl)ccc21 [Diazepam],"Seizure score (AGS), Mean ± s.d.","[2]; mouse, in vivo",3.1 ± 1.1
same,behavioral/seizure response to sound-induced seizures,"[2]; mouse, in vivo, 1 mg/kg",effective
CN1CCN(c2ncc(-c3cc(Cl)cc(Cl)c3Cl)c(N)n2)CC1 [Sipatrigine],behavioral/seizure response to sound-induced seizures,[2]; [4],effective
same,"Seizure score (AGS), Mean ± s.d.",[2]; [5],3.3 ± 1.7
CCCCNc1ccc(C(=O)OCCN(C)C)cc1 [Tetracaine],"K+-dependent change in Rf/Ri (depolarization, counter-screen)",[3],not
same,Na+-dependent change in Rf/Ri (depolarization),[3],inhibited
